Data on 20 compounds can be found in patent US10323022B2, “Pyrrolidinyl urea, pyrrolidinyl thiourea and pyrrolidinyl guanidine compounds as TrkA kinase inhibitors” (Array BioPharma Inc., priority 2011, dated 2019).

Where a name gives a salt, the structure may show the parent alone.

In general, IC50 refers to the midpoint of a concentration-inhibition curve. Low readings indicate greater potency in that assay, high ones weaker potency in that assay.

This assay concerns the target TrkA (Homo sapiens (Human), UniProt P04629). Nature of the assay: TrkA Omnia Assay. Type of assay: biochemical. To be noted: averaged IC50; 20 nM enzyme, 500 μM ATP, 10 μM peptide substrate. An outline of the steps: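 Recombinant TrkA (20 nM) preincubated 10 min at ambient temperature with compound, then Omnia Tyr Peptide #4 (10 μM) and ATP (500 μM) added in 25 mM MOPS pH 7.5, 5 mM MgCl2, 0.005% Triton X-100. Fluorescence (ex 360/em 485 nm) followed continuously for 70 min; IC50 from initial rates by 4- or 5-parameter logistic fit.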

Chain of TrkA (P04629 33-796): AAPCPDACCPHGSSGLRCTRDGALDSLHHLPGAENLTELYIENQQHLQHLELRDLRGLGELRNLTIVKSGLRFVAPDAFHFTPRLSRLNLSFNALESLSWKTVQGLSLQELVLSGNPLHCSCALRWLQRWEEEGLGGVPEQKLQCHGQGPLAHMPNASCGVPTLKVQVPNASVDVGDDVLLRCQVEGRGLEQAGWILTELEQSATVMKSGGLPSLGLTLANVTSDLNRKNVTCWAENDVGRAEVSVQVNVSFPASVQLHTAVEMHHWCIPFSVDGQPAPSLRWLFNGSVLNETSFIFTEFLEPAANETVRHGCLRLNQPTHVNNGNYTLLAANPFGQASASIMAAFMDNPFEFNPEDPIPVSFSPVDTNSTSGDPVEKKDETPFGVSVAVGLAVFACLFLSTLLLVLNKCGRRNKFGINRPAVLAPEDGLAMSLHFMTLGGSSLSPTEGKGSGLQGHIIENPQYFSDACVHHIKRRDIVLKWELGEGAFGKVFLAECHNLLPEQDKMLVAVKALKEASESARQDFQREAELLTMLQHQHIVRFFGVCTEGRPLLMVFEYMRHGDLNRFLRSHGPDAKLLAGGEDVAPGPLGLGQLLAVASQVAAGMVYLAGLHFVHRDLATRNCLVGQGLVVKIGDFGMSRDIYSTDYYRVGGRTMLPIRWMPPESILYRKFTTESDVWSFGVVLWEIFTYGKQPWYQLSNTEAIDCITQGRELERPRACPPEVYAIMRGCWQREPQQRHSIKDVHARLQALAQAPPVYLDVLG

As to `COCCN1C[C@@H](NC(=O)Nc2c(C)c(OC[C@H](O)CO)nn2-c2ccccc2)[C@H](c2cc(F)cc(F)c2)C1` [Example 558, 1-((3S,4R)-4-(3,5-difluorophenyl)-1-(2-methoxyethyl)pyrrolidin-3-yl)-3-(3-((R)-2,3-dihydroxypropoxy)-4-methyl-1-phenyl-1H-pyrazol-5-yl)urea], the IC50 is below 100 nM.

Turning to `COCCN1C[C@@H](NC(=O)Nc2c(C)c(OCCNC(C)=O)nn2-c2ccccc2)[C@H](c2ccc(F)c(F)c2)C1` [Example 545, N-(2-((5-(3-((3S,4R)-4-(3,4-difluorophenyl)-1-(2-methoxyethyl)pyrrolidin-3-yl)ureido)-4-methyl-1-phenyl-1H-pyrazol-3-yl)oxy)ethyl)acetamide], the concentration for half-maximal inhibition (IC50) was below 100 nM.

In the case of `COCCN1C[C@@H](NC(=O)Nc2c(C)c(C)nn2-c2ccccc2)[C@H](c2cncc(Cl)c2)C1` (relative stereo) [Example 343, 1-(trans-4-(5-chloropyridin-3-yl)-1-(2-methoxyethyl)pyrrolidin-3-yl)-3-(3,4-dimethyl-1-phenyl-1H-pyrazol-5-yl)urea], the IC50 was below 100 nM.

Consider `COCCN1C[C@@H](NC(=O)Nc2c(C)c(-c3cncnc3)nn2-c2ccccc2)[C@H](c2ccc(F)c(F)c2)C1` [Example 504, 1-((3S,4R)-4-(3,4-difluorophenyl)-1-(2-methoxyethyl)pyrrolidin-3-yl)-3-(4-methyl-1-phenyl-3-(pyrimidin-5-yl)-1H-pyrazol-5-yl)urea], for which the concentration for half-maximal inhibition (IC50) was below 100 nM.

For `COCCN1C[C@@H](NC(=O)Nc2c(Br)c(C3CCNCC3)nn2-c2ccccc2)[C@H](c2ccc(F)c(F)c2)C1` [Example 582, 1-(4-bromo-1-phenyl-3-(piperidin-4-yl)-1H-pyrazol-5-yl)-3-((3S,4R)-4-(3,4-difluorophenyl)-1-(2-methoxyethyl)pyrrolidin-3-yl)urea dihydrochloride], the half-inhibitory concentration (IC50) is below 100 nM.

`CNC(=O)c1nn(-c2ccccc2)c(NC(=O)N[C@@H]2CN(CCOC)C[C@H]2c2ccc(F)cc2)c1C` [Example 292, 5-(3-((3S,4R)-4-(4-fluorophenyl)-1-(2-methoxyethyl)pyrrolidin-3-yl)ureido)-N,4-dimethyl-1-phenyl-1H-pyrazole-3-carboxamide] registered an IC50 below 100 nM.

`COCCN1C[C@@H](NC(=O)Nc2c(C)c(-c3cnn(C)c3)nn2-c2cncc(Cl)c2)[C@H](c2ccc(F)c(F)c2)C1` [Example 497, 1-(1-(5-chloropyridin-3-yl)-1′,4-dimethyl-1H, 1′H-[3,4′-bipyrazol]-5-yl)-3-((3 S,4R)-4-(3,4-difluorophenyl)-1-(2-methoxyethyl)pyrrolidin-3-yl)urea] showed an IC50 of 100 to 1000 nM.

`O=C(Nc1c2c(nn1-c1ccccc1)CCC2)NC1CN(CCCC(F)(F)F)C[C@H]1c1ccccc1` (stereo partly drawn) [Example 185, 1-((3,4-trans)-4-phenyl-1-(4,4,4-trifluorobutyl)pyrrolidin-3-yl)-3-(2-phenyl-2,4,5,6-tetrahydrocyclopenta[c]pyrazol-3-yl)urea] displayed an IC50 of 100 to 1000 nM.

The compound `Cc1c(OCC#N)nn(-c2ccccc2)c1NC(=O)N[C@@H]1CN(Cc2csnn2)C[C@H]1c1ccc(F)c(F)c1` [Example 250, 1-((3S,4R)-1-((1,2,3-thiadiazol-4-yl)methyl)-4-(3,4-difluorophenyl)pyrrolidin-3-yl)-3-(3-(cyanomethoxy)-4-methyl-1-phenyl-1H-pyrazol-5-yl)urea] registered an IC50 below 100 nM.

Compound `COCCN1C[C@@H](NC(=O)Nc2c(C)c(OC[C@@H](O)COC)nn2-c2ccccc2)[C@H](c2cc(F)c(F)c(F)c2)C1` [Example 564, 1-(3-((S)-2-hydroxy-3-methoxypropoxy)-4-methyl-1-phenyl-1H-pyrazol-5-yl)-3-((3S,4R)-1-(2-methoxyethyl)-4-(3,4,5-trifluorophenyl)pyrrolidin-3-yl)urea] yielded a concentration for half-maximal inhibition (IC50) below 100 nM.

Regarding `COCCN1C[C@@H](NC(=O)Nc2c(-c3ccccc3)nn(CC(F)(F)F)c2C)[C@H](c2ccc(F)c(F)c2)C1` [Example 643, 1-((3S,4R)-4-(3,4-difluorophenyl)-1-(2-methoxyethyl)pyrrolidin-3-yl)-3-(5-methyl-3-phenyl-1-(2,2,2-trifluoroethyl)-1H-pyrazol-4-yl)urea], the 50% inhibitory concentration (IC50) was below 100 nM.

For `COCCN1C[C@@H](NC(=O)Nc2c(Br)c(-c3cnn(C)c3)nn2-c2ccccc2)[C@H](c2ccc(F)c(F)c2)C1` [Example 420, 1-(4-bromo-1′-methyl-1-phenyl-1H,1′H-[3,4′-bipyrazol]-5-yl)-3-((3S,4R)-4-(3,4-difluorophenyl)-1-(2-methoxyethyl)pyrrolidin-3-yl)urea], the IC50 is below 100 nM.

In turn, `CCOc1nn(-c2ccccc2)c(NC(=O)N[C@@H]2CN(CCOC)C[C@H]2c2cccc(F)c2)c1C` [Example 148, 1-(3-ethoxy-4-methyl-1-phenyl-1H-pyrazol-5-yl)-3-((3S,4R)-4-(3-fluorophenyl)-1-(2-methoxyethyl)pyrrolidin-3-yl)urea] showed an IC50 below 100 nM.

The compound `COCCN1C[C@@H](NC(=O)Nc2c(C)c(OC[C@H](C)O[Si](C)(C)C(C)(C)C)nn2-c2ccccc2)[C@H](c2cc(F)c(F)c(F)c2)C1` [Example 400, 1-(3-((S)-2-(tert-butyldimethylsilyloxy)propoxy)-4-methyl-1-phenyl-1H-pyrazol-5-yl)-3-((3S,4R)-1-(2-methoxyethyl)-4-(3,4,5-trifluorophenyl)pyrrolidin-3-yl)urea] had an IC50 of 100 to 1000 nM.

Take `COCCN1C[C@@H](NC(=O)Nc2cnn3ccccc23)[C@H](c2ccc(F)c(F)c2)C1` [Example 637, 1-((3S,4R)-4-(3,4-difluorophenyl)-1-(2-methoxyethyl)pyrrolidin-3-yl)-3-(pyrazolo[1,5-a]pyridin-3-yl)urea]: the concentration for half-maximal inhibition (IC50) was below 100 nM.

`COCCN1C[C@@H](NC(=O)Nc2c(C)c(OCC(N)=O)nn2-c2ccccc2)[C@H](c2ccc(F)c(F)c2)C1` [Example 547, 2-((5-(3-((3S,4R)-4-(3,4-difluorophenyl)-1-(2-methoxyethyl)pyrrolidin-3-yl)ureido)-4-methyl-1-phenyl-1H-pyrazol-3-yl)oxy)acetamide]: the concentration for half-maximal inhibition (IC50) was below 100 nM.

`CCn1cc(-c2nn(-c3ccccc3)c(NC(=O)N[C@@H]3CN(CCOC)C[C@H]3c3ccc(F)cc3)c2C)cn1` [Example 524, 1-(1′-ethyl-4-methyl-1-phenyl-1H, 1′H-[3,4′-bipyrazol]-5-yl)-3-((3S,4R)-4-(4-fluorophenyl)-1-(2-methoxyethyl)pyrrolidin-3-yl)urea] displayed an IC50 below 100 nM.

On to `COCCN1C[C@@H](NC(=O)Nc2cc(C(C)(C)CO)nn2-c2ccccc2)[C@H](c2ccccc2)C1` [Example 94, 1-(3-(1-hydroxy-2-methyl-propan-2-yl)-1-phenyl-1H-pyrazol-5-yl)-3-((3S,4R)-1-(2-methoxyethyl)-4-phenylpyrrolidin-3-yl)urea], for which the concentration for half-maximal inhibition (IC50) lay within 100 to 1000 nM.

`O=C(Nc1c2c(nn1-c1ccccc1)CCC2)N[C@H]1CN(CC(F)(F)F)C[C@@H]1c1cccc(F)c1` [Example 204, 1-((3R,4S)-4-(3-fluorophenyl)-1-(2,2,2-trifluoroethyl)pyrrolidin-3-yl)-3-(2-phenyl-2,4,5,6-tetrahydrocyclopenta[c]pyrazol-3-yl)urea] came in with an IC50 below 100 nM.

In the case of `COCCN1C[C@@H](NC(=O)Nc2cc(C(C)C)nn2-c2ccccc2)[C@H](c2ccccc2)C1` (relative stereo) [Example 12, 1-(3-isopropyl-1-phenyl-1H-pyrazol-5-yl)-3-(trans-1-(2-methoxyethyl)-4-phenylpyrrolidin-3-yl)urea], the IC50 is below 100 nM.
